According to PubChem BioAssay (NCI):
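Grown in 96-well plates, cells were treated for 48 hours with each compound at five concentrations. Insufficient inhibition: endpoint recorded as highest concentration tested. Definition used: TGI = concentration required for complete inhibition of growth.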

Legend:
Test in all cases: inhibition of tumour cell growth, NCI panel, 48 h
[1] = tested on: NCI-H226 lung
[2] = tested on: SK-MEL-5 melanoma
[3] = tested on: A549 NSCLC
[4] = tested on: EKVX NSCLC
[5] = tested on: MALME-3M melanoma
[6] = tested on: HL-60(TB) leukemia
[7] = tested on: MOLT-4 leukemia
[8] = tested on: SK-MEL-28 melanoma
[9] = tested on: SW-620 colon
[10] = tested on: HOP-92 NSCLC
[11] = tested on: KM12 colon
[12] = tested on: HOP-62 NSCLC
[13] = tested on: U251 CNS
[14] = tested on: RPMI-8226 leukemia
[15] = tested on: OVCAR-5 ovarian
[16] = tested on: SK-MEL-2 melanoma
[17] = tested on: HCC-2998 colon
[18] = tested on: MCF7 breast
[19] = tested on: PC-3 prostate
[20] = tested on: BT-549 breast

Compound	TGI [1]	TGI [2]	TGI [3]	TGI [4]	TGI [5]	TGI [6]	TGI [7]	TGI [8]	TGI [9]	TGI [10]	TGI [11]	TGI [12]	TGI [13]	TGI [14]	TGI [15]	TGI [16]	TGI [17]	TGI [18]	TGI [19]	TGI [20]
COc1cc(/C=C\c2ccccn2)cc(OC)c1OC	> 100 µM	> 100 µM	> 100 µM	> 100 µM	> 100 µM	> 100 µM	> 100 µM	> 100 µM	> 100 µM	> 100 µM	> 100 µM	> 100 µM	> 100 µM	> 100 µM	> 100 µM	–	–	–	–	–
COc1ccc(/C=C2/C(C)=NN(c3cccc(Cl)c3)/C2=N/c2nc3ccccc3s2)cc1	56.4 µM	33.7 µM	–	83.1 µM	–	51.4 µM	63.8 µM	46.9 µM	52 µM	47.7 µM	> 100 µM	47.2 µM	47 µM	66.6 µM	69.6 µM	41.8 µM	33.2 µM	84.4 µM	38 µM	–
COc1cc(Br)c(OC)c2c(OC)cc(C)cc12	> 100 µM	–	–	–	> 100 µM	> 100 µM	> 100 µM	> 100 µM	> 100 µM	–	> 100 µM	> 100 µM	> 100 µM	> 100 µM	> 100 µM	> 100 µM	> 100 µM	> 100 µM	> 100 µM	> 100 µM
NC1CC(=O)c2cc(Cl)sc21 (centres undefined)	> 100 µM	> 100 µM	> 100 µM	> 100 µM	> 100 µM	> 100 µM	–	> 100 µM	> 100 µM	> 100 µM	> 100 µM	> 100 µM	> 100 µM	–	> 100 µM	> 100 µM	–	–	> 100 µM	> 100 µM
COC(=O)c1[nH]c(=S)[nH]c(=O)c1-c1ccc(Cl)cc1	> 50 µM	> 50 µM	> 50 µM	> 50 µM	> 50 µM	> 50 µM	> 50 µM	> 50 µM	> 50 µM	> 50 µM	> 50 µM	> 50 µM	> 50 µM	> 50 µM	> 50 µM	> 50 µM	> 50 µM	–	–	–
Cn1nc(Cc2ccc(Cl)cc2)n(N)c1=O	> 100 µM	> 100 µM	> 100 µM	–	> 100 µM	–	> 100 µM	> 100 µM	> 100 µM	–	> 100 µM	–	> 100 µM	> 100 µM	> 100 µM	–	> 100 µM	> 100 µM	> 100 µM	> 100 µM
CCOC(=O)/C(O)=C(/C=N\C(=S)Nc1ccccc1Cl)C(=O)OCC	> 100 µM	> 100 µM	> 100 µM	> 100 µM	> 100 µM	> 100 µM	> 100 µM	> 100 µM	> 100 µM	90.9 µM	> 100 µM	> 100 µM	> 100 µM	> 100 µM	> 100 µM	> 100 µM	> 100 µM	> 100 µM	> 100 µM	–
Cn1c(O)c(C(=O)Nc2cccs2)c(=O)[nH]c1=S	42.6 µM	26.9 µM	45 µM	–	29.5 µM	> 100 µM	61.7 µM	29 µM	87.6 µM	33.4 µM	33.4 µM	40.6 µM	48.3 µM	49.1 µM	69.5 µM	30.4 µM	–	–	–	–
CC#COP(=O)(OCC)OCC	> 100 µM	> 100 µM	> 100 µM	> 100 µM	> 100 µM	60.6 µM	> 100 µM	–	> 100 µM	–	> 100 µM	> 100 µM	> 100 µM	> 100 µM	> 100 µM	> 100 µM	> 100 µM	–	–	–
CC1CC2OC(=O)C3CC(O)CC(=C23)[C@@]12C[C@@H](c1ccoc1)OC2=O (some centres undefined)	> 100 µM	> 100 µM	> 100 µM	> 100 µM	> 100 µM	> 100 µM	> 100 µM	> 100 µM	> 100 µM	> 100 µM	> 100 µM	–	> 100 µM	> 100 µM	> 100 µM	> 100 µM	> 100 µM	–	–	–
CCOC(=O)CSc1ccnc(=O)[nH]1	–	> 100 µM	> 100 µM	> 100 µM	> 100 µM	> 100 µM	> 100 µM	–	> 100 µM	–	> 100 µM	–	> 100 µM	> 100 µM	> 100 µM	> 100 µM	–	–	–	–
CCOC(C[C@H](O)[C@H]1COC(=S)S1)OCC	> 100 µM	> 100 µM	> 100 µM	> 100 µM	> 100 µM	> 100 µM	–	–	> 100 µM	–	> 100 µM	> 100 µM	> 100 µM	> 100 µM	–	–	> 100 µM	–	–	–
C/C(CN1C(=O)c2ccccc2C1=O)=N\NS(=O)(=O)c1ccc(Br)cc1	> 100 µM	> 100 µM	> 100 µM	> 100 µM	> 100 µM	> 100 µM	> 100 µM	> 100 µM	> 100 µM	> 100 µM	> 100 µM	> 100 µM	> 100 µM	> 100 µM	> 100 µM	> 100 µM	> 100 µM	–	–	–
NC(=S)NNC(=O)/C(=C/c1ccc(/C=C(\NC(=O)c2ccccc2)C(=O)NNC(N)=S)cc1)NC(=O)c1ccccc1	> 100 µM	> 100 µM	> 100 µM	> 100 µM	> 100 µM	> 31.6 µM	> 50.8 µM	> 100 µM	> 100 µM	> 100 µM	> 100 µM	> 100 µM	> 100 µM	> 70.2 µM	> 100 µM	> 100 µM	> 100 µM	–	–	–
